Measurements from US20260234159A1, “SMALL MOLECULE TREATMENT OF FATTY LIVER DISEASE AND HCC” (SCANDIEDGE THERAPEUTICS AB, priority 2023, published 2026).
pIC50: −log10 of the molar value. Read-outs that look alike come from different tables or passages of the source.

Columns and labels:
[1] = In vivo biosafety study in rats: histopathological and immunohistochemical examination; parameters: species or system Sprague Dawley male rats; settings: 30 mg/kg, seven days
Procedure: In vivo biosafety studies. Healthy Sprague Dawley male rats (12 weeks old, 250-280 g) were obtained from Atatürk University Experimental Research Center ([…] Turkey) and housed under standard environmental conditions (temperature 20° C.-25° C., humidity 50±20% and 12-hour light/dark diurnal cycle). Food and water were available ad libitum. Rats were randomly separated into one control group and two experimental groups (30 mg/kg/day BX-912 or JNK-IN-5A, n=5). […] The control group were received the same amount of vehicle solution only. After 7 days, rats were anaesthetized, and blood samples were collected from the abdominal aorta for biochemical and haematological analysis. The plasma was separated and stored at -80° C. for further analysis. Major organs such as heart, kidney, liver, muscle, adipose, intestine (duodenum, ileum, jejunum), pancreas, colon, and stomach were collected from all the animals for further analysis. Selected organs were fixed in 10% neutral buffered formalin for histopathological examination. Histopathological examination. […] Immunohistochemical examination. […] Slides were counter stained with hematoxylin.

[2] = system: polychromatic erythrocytes; assay: Micronucleus frequencies (MNPCEs) as genotoxicity endpoint; assay type: in vivo, Sprague Dawley male rats; settings: 30 mg/kg, seven days
Procedure: In addition to sampling for biochemical and haematological analysis, one drop of blood samples was obtained from the animals for evaluating micronucleus frequencies as genotoxicity endpoint at the end of the experiments. Three different smears of each rat were prepared using pre-coded and cold slides, then the slides air-dried at room temperature, and fixed in ethanol for 10 min, and stained with Giemsa. […] The incidence of MN-PCEs was determined by scoring a total of 3000 PCE per animal and results were expressed as % MN [12].

[3] = system: HSD fed rats; assay: In vivo efficacy study in high sucrose diet (HSD) steatosis rats; settings: HSD plus 30 mg/kg seven days
Source text: In vivo efficacy studies. After 1-week acclimation period, rats were randomly separated into two groups: control group (n=5) and high sucrose group (n=20). The control group was fed with a standard diet while the others consumed high sucrose diet (HSD). Sucrose was purchased from Sigma Chemical Co. (St Louis, MO, USA) and supplied at the dose of 10% in the drink water for two weeks.
After 2 weeks, five rats in the HSD group were randomly sacrificed for conformation of NAFLD model. Then, the remaining rats in the HSD group were separated into three sub-groups (n=5): HSD group, HSD plus BX-912 group and HSD plus JNK-IN-5A group. BX-912 and JNK-IN-5A were dissolved in DMSO and were orally administrated using oral gavage for one week (30 mg/kg/day). The HSD group were treated with vehicle solution only.
At the end of the experiment, rats were sacrificed after being anesthetized. Blood samples were collected from the abdominal aorta and centrifuged at 8000 rpm for 15 min at 4° C. The plasma was separated and stored at −80° C. until further analysis. Other internal organs, including the heart, adipose tissues, liver, kidney, muscle, intestine (duodenum, ileum, jejunum), pancreas, colon and stomach were immediately removed and then snap frozen in liquid nitrogen and stored at −80° C.; the liver was also fixed in 10% formaldehyde for histopathological examination.
Histopathological examination. The liver tissues were fixed in 10% buffered formaldehyde solution. After fixation, the tissues were passed through graded alcohol and xylene series and embedded in paraffin blocks. 5 micrometer thick sections were taken serially from the paraffin blocks. Histopathological changes were evaluated by performing hematoxylin eosin staining on the sections taken. Sections were evaluated according to histopathological findings as none (−), mild (+), moderate (++) and severe (+++).
Immunohistochemical examination. After deparaffinization, the slides were immersed in antigen retrieval solution (pH 6.0) and heated in microwave for 15 min to unmask the antigens. The sections were then dipped in 3% H2O2 for 10 min to block endogenous peroxidase activity. Protein block was dropped onto the sections, washed with PBS for 10 min. Primary antibodies (8-OH-dG, Cat No: sc-66036, Diluent Ratio: 1/100, Santa Cruz) were prepared and applied according to the usage conditions. Expose mouse and rabbit specific HRP/DAB detection IHC kit were used as follows: sections were incubated with goat anti-mouse antibody, then with streptavidin peroxidase, and finally with 3,3′ diamino benzidine+chromogen. Slides were counter stained with hematoxylin. Immunoreactivity in the sections were graded as none (−), mild (+), moderate (++) and severe (+++).

[4] = system: HepG2 cells; assay: Triglyceride (TAG) measurement assay, one week steatosis model; assay type: cell-based, human; settings: Homo sapiens
Procedure: (§1) HepG2 wild type cells were purchased from genome engineering company Synthego. Cells were maintained with Roswell Park Memorial Institute growth media, RPMI, 1640 (R2405, Sigma-Aldrich) and supplemented with 10% fetal bovine serum (FBS, F7524, Sigma-Aldrich), 1% penicillin-streptomycin (P/S, P4333, Sigma-Aldrich). Steatosis induction media was prepared as high glucose Dulbecco's Modified Eagle Media (DMEM, D0819, Sigma-Aldrich) with 10% FBS, 1% P/S media supplemented with 10 μg/ml insulin (I9278, Sigma-Aldrich), and 10 μM T0901317 (T2320, Sigma-Aldrich). HepG2 cells were seeded 6×10^4 cells per well for 96-well plate and 1×10^6 cells per well for 6-well plate. HepG2 cells were incubated with steatosis induce media (SM) for one week by 3 day+2 day+2 day with total three times media exchange.
HepG2 cells were seeded at 6×10^4 cells per well into 96 well plate and induced steatosis for one week with 10 μM of target drugs. After steatosis induction, cells were washed with 200 μl of phosphate buffered saline (PBS) and triglyceride contents was measured by Triglyceride Assay Kit—Quantification (ab65336, Abcam) following manufacturer's instruction. Optical density (O.D) values were detected with microplate reader at 570 nm (Hidex Sense Beta Plus).
(§2) HepG2 cells were seeded at 60,000 cells per well in 96 well plate. Using steatosis induce media, the cells were treated with 10 μM of target drugs for one week. The media was changed 3 times at day 0, day 3 and day 5. TAG assay was performed using MAK266-1KT SDS Triglyceride Quantification Colorimetric kit and cell viability analysis was performed using MTT assay.

[5] = MTT cell viability after one week steatosis (ranking of target molecules); assay type: cell-based, human; settings: human, HepG2 cells (wild type); HepG2, 10 μM, one week steatosis induce media, MTT; Control 100.00
Procedure: as §1, §2

[6] = MTT cell viability / IC50 in growth media; assay type: cell-based, human; settings: human, HepG2 cells; 10 μM, treatment for 2 days
Procedure: (§3) The cytotoxic effects of the synthesized drugs on the HepG2 cells were tested by MTT (Thiazolyl Blue Tetrazolium Bromide) method. HepG2 cells were seeded 2×10^4 cells per well in 96-well plate in 200 μL growth media. […] After the incubation period, 5 mg/ml MTT (M2128, Sigma-Aldrich) solution in PBS (10 μL) was added to each well. After 1 hr, the MTT solution and all media were removed from the wells. 100 μl of DMSO was added and mixed to dissolve the formazan crystals. Cell viability was analysed by measuring the absorbance of the dissolved formazan in a microplate reader at a wavelength of 570 nm with microplate reader (Hidex Sense Beta Plus).
(§4) HepG2 cells were maintained and used with RPMI 1640 (R2405, Sigma-Aldrich) supplemented with 10% fetal bovine serum (F7524, Sigma-Aldrich), 1% P/S (P4333, Sigma-Aldrich). 20,000 cells per well of HepG2 cells were seeded into a 96-well plate and triplicated for MTT assay and LDH assay. Cell viability was measured by MTT assay (M6494, ThermoFisher) and cytotoxicity was measured by LDH assay kit (ab65393, abcam) by following manufacturer's instructions. Optical density (O.D) was numerated using a microplate reader (Hidex Sense Meta Plus).

[7] = system: HepG2 cells; assay: MTT cell viability / IC50 in growth media; assay type: cell-based, human
Procedure: as §3, §4

[8] = system: JNK1/2/3; assay: Western blot, JNK1/2/3 P54 and p46 isoforms; assay type: cell-based, human; settings: 10 μM, 2 days
Procedure: HepG2 cells were seeded into a 6-well plate at 400,000 cells per well. After treatment with 10 μM of JNK-IN-5A and its derivatives for two days, lysates were harvested with CelLytic M (C2978, Sigma-Aldrich). […] SDS PAGE were performed using Mini-PROTEAN® TGX™ Precast Gels (Bio-Rad) and transferred using Trans-Blot® Turbo™ Transfer System (Bio-Rad). […] ImageQuantTMLAS 500 (29-0050-63, GE) was used to detect protein bands.

[9] = system: HepG2 cells; assay: FACs analysis with PI staining (cell cycle); assay type: cell-based, human; settings: PI FACs, 10 μM, 2 days
Procedure: 400,000 HepG2 cells were seeded in a 6-well plated and treated with 10 μM of the compounds for 2 days. Cells were fixed with 70% ethanol and stained with 50 μg/ml PI. Prepared cells were analysed using BD FACS Canto II Flow Cytometry system at PE-A channel 10,000 cells per group. The data was histogram plotted with BD FACSDiva 9.0.

[10] = system: HepG2 cells; assay: Mitochondrial membrane potential assay (TMRE); assay type: cell-based, human; settings: 10 μM, one day
Procedure: HepG2 cells were seeded into a 6-well plate at 400,000 cells per well. After treatment with the compounds at desired concentration and time, TMRE (ab113852, abcam), Autophagy (ab139484, abcam), ROS (ab113851, abcam), and Lipid peroxidation (ab243377, abcam) assay were performed according to manufacturer's instructions. Fluorescence images were taken using ZOE™ Fluorescent Cell Imager (Biorad) and ROI of fluorescence intensity was measured and calculated by Image J. For microplate reader florescence assay, 40,000 of HepG2 cells were seeded into a 96-well plate and triplicated. GFP (Ex480 nm, Em530 nm) and RFP (Ex549 nm, Em574 nm) were measured using a microplate reader (Hidex Sense Meta Plus).

[11] = system: HepG2 cells; assay: Invasion assay (transwell); assay type: cell-based, human; settings: Homo sapiens, HepG2, 24 hr, read-out: invasiveness reduced by
Procedure: The effects of the treatment with the compounds on the invasion ability of HepG2 and Huh7 cells were determined by 8 μm pores transwell chamber (Corning™ 3464, USA).
(§5) Transwell membrane was coated with 100 μl collagen (Sigma C3867, USA) diluted with PBS to a concentration of 1 mg/ml. After overnight incubation at 4° C., the collagen solution was discarded and the membrane was washed with PBS. 100,000 cells in 200 μl serum free media together with the tested compounds were added into the upper well and 600 μl of 10% FBS supplemented growth media was added to the lower well as an invasive attractant in a 24-well plate. Cells were incubated at 37° C. in a CO2 incubator for one day. The cells were fixed with 3.7% formaldehyde for 30 minutes at room temperature and washed with PBS twice. The cells were stained with 1% crystal violet in PBS for 20 minutes and residual cells in inner membrane were swabbed gently with a cotton swab. Invaded cells located at the outer membrane were imaged by ZOE Fluorescent Cell Imager (Bio-Rad, USA) and counted by image. For wound healing assay, 100,000 cells per well were seeded into 24-well plates and grown until 95-100% confluent. Linear wound was created by using a 200 μl pipette tip. Image was recorded at the time point of day 0 until control group wound closure with 1 μM of compounds by ZOE Fluorescent Cell Imager (Bio-Rad, USA). Wound areas were measured using ImageJ software.

[12] = system: HepG2 cells; assay: Wound healing assay; assay type: cell-based; settings: Homo sapiens, HepG2, 96 h, day 4, untreated 100% wound closure, read-out: wound healing delayed by
Procedure: as §5

O=C(Nc1cccc(Nc2ncc(Br)c(NCCc3cnc[nH]3)n2)c1)N1CCCC1 [BX-912]
histological structures of major organs [1]: normal histological structures
side effects on the rats [1]: no side effects
8-OH-dG expression in liver tissues ([1]; IHC): negative
genotoxic potential [2]: non-genotoxic
frequencies of MNPCEs compared to Ctrl animals ([2]; p>0.05): not statistically different
degeneration in hepatocytes in liver tissues ([3]; HSD 3w severe): Mild
degeneration in renal tubule epithelium ([3]; HSD 3w severe): mild
fattening in the parenchyma cells of pancreas tissues ([3]; HSD 3w severe): mild
steatosis in hepatocytes in liver tissues ([3]; HSD 3w severe): moderate
8-OH-dG expression in hepatocytes ([3]; HSD 3w strong): significantly decreased

N#Cc1c(NC(=O)c2cccc3ccccc23)sc2c1CCN(CC(=O)Nc1ccnc(Cl)n1)C2 [PKL-B172]
activity at 10 µM ([4]; 168 h, HepG2, 10 μM, one week steatosis induce media, Control 100.00, read-out: TAG (%)): 22%
activity at 10 µM ([4]; HepG2, 168 h, ratio between TAG content and cell viability, Control 100.0, read-out: TAG/cell viability): 40.9%
viability at 1 week, 10 µM [5]: 53.7%
viability at 2 days, 10 µM [6]: 62.7%
pIC50 ([7]; Homo sapiens, 48 h, HepG2, treatment for 2 days, 30 μM to 30 nM): 4.88
cell viability of HepG2 cells ([7]; especially in cancerous media): particularly low cell viability
JNK1/2/3 p46 expression [8]: not significantly altered
Cell population G0/G1 [9]: 16.7
Cell population G2/M [9]: 73.2
Cell population S [9]: 2.7
mitochondrial membrane potential [10]: significantly decreased
inhibition at 1 µM [11]: 72.3%
inhibition at 1 µM [12]: 60.7%
